Assay results from US20180344763A1, “METHODS FOR ADVERSELY AFFECTING BIOFILMS” (Commonwealth Scientific and Industrial Research Organisation, priority 2015, published 2018).
≈ marks a conversion by molar mass, not a printed value. Values belong to the molecule of their own block, whether it stands above or below them.

Key:
C. albicans [1] = assay: Broth microdilution MIC, planktonic cells; assay type: cell-based, Candida albicans; details: C. albicans single species culture, RPMI-1640, 48 h
Method: (§1) Minimum inhibitory concentrations (MICs) for antibacterial and antifungal agents were determined using the broth microdilution method according to CLSI guidelines M07-A9 (for S. aureus) and M27-A3 (for C. albicans), but replacing Muller-Hinton broth with RPMI-1640 for antibacterial MIC testing. One hundred microlitres of two-fold serial dilutions of the drugs prepared in RPMI-1640 were added into the wells of 96-well microplates. Exponentially grown cultures were diluted in RPMI-1640 to a density of ˜1×10^3 CFU/mL for C. albicans and ˜1×10^6 CFU/mL for S. aureus and 100 μL were added to each well. Microplates were incubated for 18 h at 35° C. for S. aureus and 48 h for C. albicans. Bacterial or fungal growth was examined visually with the aid of a mirror reader. The antibacterial MIC was defined as the lowest concentration resulting in complete growth inhibition. The MIC of antifungals was read as the lowest concentration that prevents discernible growth for amphotericin B or polymers, or as the lowest concentration that inhibits at least 50% of fungal growth for fluconazole and caspofungin, corresponding to a score of zero or two in the CLSI M27-A3 protocol.

C. albicans biofilms = assay: Antimicrobial susceptibility of single biofilm (XTT, biofilm MIC80); assay type: cell-based, Candida albicans; details: for Biofilm MIC80: C. albicans single species biofilm, 48 h treatment; for Activity against C. albicans monomicrobial biofilms: compared with planktonic growth
Method: (§2) Single biofilms of S. aureus or C. albicans were set up in 96-well microplates as described above. After overnight incubation, the cell suspensions were aspirated and the wells were rinsed twice with 100 μL of PBS per well to remove non-adherent cells. Two hundred microlitres of antimicrobial agents were added into each well, and the treatments lasted for 18 h for S. aureus and 48 h for C. albicans. After the treatment, the suspensions were removed and the microwells were washed twice with PBS. Two hundred microlitres of 2, 3-bis (2-methoxy-4-nitro-5-sulfophenyl)-5-[(phenylamino) carbonyl]-2H-tetrazolium hydroxide (XTT, 0.5 mg/L) solution were added into each well and the microplate were incubated at 37° C. in the dark for 2 h. One hundred microliters of XTT solution were transferred to a new microplate and read at OD492. Alternatively, the efficacy of antimicrobial agents against biofilms was determined based on the reduction in viable counts after exposure to antimicrobials. The ratio of cell survival (cell density after antimicrobial treatment) relative to antimicrobial-free culture (cell density of the drug-free biofilms) (×100) was calculated.

S. aureus biofilms = assay: as above; assay type: cell-based, Staphylococcus aureus; details: S. aureus single species biofilm, 18 h treatment
Method: as §2

[2] = tested on: C. albicans-S. aureus polymicrobial biofilms; assay: Catheter lock solution re-growth assay (MBEC); assay type: cell-based, Candida albicans and Staphylococcus aureus; details: polymicrobial 24 h biofilm, 18 h exposure
Method: (§3) Biofilms were washed three times with saline to remove the residual antimicrobial agents. Two hundred microliter volumes of TSB were then added to each well and microplates were incubated at 35° C. for a further 48 h. A microplate shaker (speed 2) ([…], Flow laboratories, Germany) was used to facilitate the multiplication and release of any living cells remaining in the biofilms. After 48 h, 150 μL of the contents in each well in the microplate was transferred to a U-bottom microplate and examined visually for turbidity. The lowest concentration of antimicrobial agents corresponding to clear wells was defined as the minimum biofilm eradication concentration (MBEC) for successful use as CLS.

[3] = tested on: C. albicans 24 h single biofilms; assay: Catheter lock solution re-growth assay (MBEC); assay type: cell-based, Candida albicans; details: C. albicans 24 h biofilm, 18 h exposure
Method: as §3

[4] = tested on: S. aureus 24 h single biofilms; assay: Catheter lock solution re-growth assay (MBEC); assay type: cell-based, Staphylococcus aureus; details: S. aureus 24 h biofilm, 18 h exposure
Method: as §3

C. albicans [5] = assay: Planktonic MIC in presence or absence of isolated biofilm matrix; assay type: cell-based, Candida albicans
Method: as §1
(§4) Extracellular matrix was isolated from Candida or polymicrobial biofilms following the method reported in PLoS pathogens 2012, 8:e1002848. Biofilms were established by growing cultures in 6-well TCPS microplates for 48 h at 37° C. Supernatants were carefully removed from each well and the biofilms were washed once with sterile distilled water. One millilitre of distilled water was added into each well, and the biofilms were removed using a cell scraper. This step was repeated three times. The suspensions containing dislodged biofilms were then transferred into a 50 ml Falcon tube, sonicated with a Branson Sonicator for 10 min (duty cycle constant, output 20%). The suspensions were vortexed for 2 min at full speed (4×30 s), prior to centrifugation at 6000 rpm for 15 min for 5 times. The supernatants containing the extracellular matrix were removed and stored at −20° C. […]

S. aureus [6] = assay: Broth microdilution MIC, planktonic cells; assay type: cell-based; details: Staphylococcus aureus; S. aureus single species culture, RPMI-1640, 18 h
S. aureus [7] = assay: Planktonic MIC in presence or absence of isolated biofilm matrix; assay type: cell-based, Staphylococcus aureus
Method: as §1, §4

Structure (SMILES): CCO [Ethanol, ethanol]
MBEC as catheter lock solution [2]: 20% (V/V) | MBEC as catheter lock solution ([2]; listed as ethanol): 20 % (V/V) | MBEC as catheter lock solution [3]: 20% (V/V) | MBEC as catheter lock solution [4]: 20% (V/V)

Structure (SMILES): Cc1onc(-c2ccccc2)c1C(=O)N[C@@H]1C(=O)N2[C@@H]1SC(C)(C)[C@@H]2C(=O)O [Oxacillin, oxacillin]
MIC (S. aureus [6]): 0.06 µg/mL (≈ 0.149 µM) | Biofilm MIC80 (S. aureus biofilms): >1024 µg/mL

Structure (SMILES): CO[C@H]1/C=C/O[C@@]2(C)Oc3c(C)c(O)c4c(O)c(c(/C=N/N5CCN(C)CC5)c(O)c4c3C2=O)NC(=O)/C(C)=C\C=C\[C@H](C)[C@H](O)[C@@H](C)[C@@H](O)[C@@H](C)[C@H](OC(C)=O)[C@@H]1C [Rifampicin, rifampicin]
MIC (S. aureus [6]): 0.015 µg/mL (≈ 0.0182 µM) | Biofilm MIC80 (S. aureus biofilms): >1024 µg/mL

Structure (SMILES): CN[C@H](CC(C)C)C(=O)N[C@H]1C(=O)N[C@@H](CC(N)=O)C(=O)N[C@H]2C(=O)N[C@H]3C(=O)N[C@H](C(=O)N[C@H](C(=O)O)c4cc(O)cc(O)c4-c4cc3ccc4O)[C@H](O)c3ccc(c(Cl)c3)Oc3cc2cc(c3O[C@@H]2O[C@H](CO)[C@@H](O)[C@H](O)[C@H]2O[C@H]2C[C@](C)(N)[C@H](O)[C@H](C)O2)Oc2ccc(cc2Cl)[C@H]1O [Vancomycin, vancomycin]
MIC, C. albicans biofilm matrix (S. aureus [7]; S. aureus, in presence of C. albicans biofilm matrix): 1 µg/mL | MIC, polymicrobial biofilm matrix (S. aureus [7]; S. aureus, in presence of polymicrobial biofilm matrix): 2 µg/mL | MIC (S. aureus [7]; Staphylococcus aureus, read-out: MIC, medium only): 2 µg/mL (≈ 1.38 µM) | MIC (S. aureus [6]): 1 µg/mL (≈ 0.69 µM) | Biofilm MIC80 (S. aureus biofilms): >1024 µg/mL

Second part, led by results:

Planktonic MIC (C. albicans [1]): 1 µg/mL | Biofilm MIC80 (C. albicans biofilms): 1 µg/mL
Structure (SMILES): C[C@@H]1[C@H](O)[C@@H](C)/C=C/C=C/C=C/C=C/C=C/C=C/C=C/[C@H](O[C@@H]2O[C@H](C)[C@@H](O)[C@H](N)[C@@H]2O)C[C@@H]2O[C@](O)(C[C@@H](O)C[C@@H](O)[C@H](O)CC[C@@H](O)C[C@@H](O)CC(=O)O[C@H]1C)C[C@H](O)[C@H]2C(=O)O [Amphotericin B, amphotericin B]
Activity against C. albicans monomicrobial biofilms (C. albicans biofilms): retaining their activities

MIC (C. albicans [1]; Candida albicans): 1 µg/mL (≈ 0.915 µM) | Biofilm MIC80 (C. albicans biofilms): 0.12 µg/mL
Structure (SMILES): CC[C@H](C)C[C@H](C)CCCCCCCCC(=O)N[C@H]1C[C@@H](O)[C@@H](NCCN)NC(=O)[C@@H]2[C@@H](O)CCN2C(=O)[C@H]([C@H](O)CCN)NC(=O)[C@H]([C@H](O)[C@@H](O)c2ccc(O)cc2)NC(=O)[C@@H]2C[C@@H](O)CN2C(=O)[C@H]([C@@H](C)O)NC1=O [Caspofungin, caspofungin]
Activity against C. albicans monomicrobial biofilms (C. albicans biofilms): retaining their activities

Biofilm MIC80 (S. aureus biofilms): >1024 µg/mL
Structure (SMILES): O=C(O)c1cn(C2CC2)c2cc(N3CCNCC3)c(F)cc2c1=O [Ciprofloxacin, ciprofloxacin]

Biofilm MIC80 (C. albicans biofilms): >1024 µg/mL | Increase in MIC in presence of biofilm matrix (C. albicans [5]; C. albicans or polymicrobial biofilm matrix): 16 fold | MIC, C. albicans biofilm matrix (C. albicans [5]; in presence of C. albicans biofilm matrix): 8 µg/mL | MIC, polymicrobial biofilm matrix (C. albicans [5]; in presence of polymicrobial biofilm matrix): 8 µg/mL
Structure (SMILES): OC(Cn1cncn1)(Cn1cncn1)c1ccc(F)cc1F [Fluconazole, fluconazole]
